Source: ChEMBL document CHEMBL1201861, “Genomics of Drug Sensitity in Cancer screening data, Wellcome Trust Sanger Institute”

Key:
Format in all cases: functional, cell-based
SK-MEL-24 = assay: cells; conditions: Homo sapiens;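 also: growth inhibition read out by a cell viability assay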
Description: SANGER: Inhibition of human SK-MEL-24 cell growth in a cell viability assay.

KP-4 = assay: cells; conditions: Homo sapiens;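 also: human KP-4 cells, with growth inhibition read out through a cell viability assay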
Description: SANGER: Inhibition of human KP-4 cell growth in a cell viability assay.

UO-31 = assay: cells; conditions: Homo sapiens
Description: SANGER: Inhibition of human U031 cell growth in a cell viability assay.

EVSA-T = assay: cells; conditions: Homo sapiens;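 also: growth inhibition of EVSA-T cells, read out with a cell viability assay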
Description: SANGER: Inhibition of human EVSA-T cell growth in a cell viability assay.

A-375 = assay: cells; conditions: Homo sapiens;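 also: growth inhibition of A375 cells, read out with a cell viability assay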
Description: SANGER: Inhibition of human A375 cell growth in a cell viability assay.

HT-29 = assay: cells; conditions: Homo sapiens;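 also: growth inhibition of human HT-29 cells, read out by a cell viability assay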
Description: SANGER: Inhibition of human HT-29 cell growth in a cell viability assay.

A673 = assay: cells; conditions: Homo sapiens;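 also: growth inhibition of human A673 cells, read out through a cell viability assay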
Description: SANGER: Inhibition of human A673 cell growth in a cell viability assay.

HT-1376 = assay: cells; conditions: Homo sapiens
Description: SANGER: Inhibition of human HT-1376 cell growth in a cell viability assay.

FTC-133 = assay: cells; conditions: Homo sapiens
HOS = assay: cells; conditions: Homo sapiens;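 also: growth inhibition of human HOS cells, read out with a cell viability assay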
Description: SANGER: Inhibition of human HOS cell growth in a cell viability assay.

NCI-H1694 = assay: cells; conditions: Homo sapiens;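 also: cell viability assay measuring inhibition of growth in human NCI-H1694 cells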
Description: SANGER: Inhibition of human NCI-H1694 cell growth in a cell viability assay.

NCI-H345 = assay: cells; conditions: Homo sapiens;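 also: growth inhibition of NCI-H345 cells measured with a cell viability assay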
Description: SANGER: Inhibition of human NCI-H345 cell growth in a cell viability assay.

G-361 = assay: cells; conditions: Homo sapiens
HCC1954 = assay: cells; conditions: Homo sapiens;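 also: growth inhibition of human HCC1954 cells, read out with a cell viability assay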
Description: SANGER: Inhibition of human HCC1954 cell growth in a cell viability assay.

NCI-H1792 = assay: cells; conditions: Homo sapiens;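 also: growth inhibition of human NCI-H1792 cells, read out as cell viability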
Description: SANGER: Inhibition of human NCI-H1792 cell growth in a cell viability assay.

DU-145 = assay: cells; conditions: Homo sapiens
Description: SANGER: Inhibition of human DU-145 cell growth in a cell viability assay.

IGROV-1 = assay: cells; conditions: Homo sapiens;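 also: reduction of IGROV-1 cell growth, read out with a viability assay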
Description: SANGER: Inhibition of human IGROV-1 cell growth in a cell viability assay.

TALL-1 = assay: cells; conditions: Homo sapiens;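 also: growth inhibition of cultured human TALL-1 cells, read out by a cell viability assay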
Description: SANGER: Inhibition of human TALL-1 cell growth in a cell viability assay.

ASPC1 = assay: cells; conditions: Homo sapiens;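 also: growth inhibition of AsPC-1 cells, read out with a cell viability assay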
Description: SANGER: Inhibition of human AsPC-1 cell growth in a cell viability assay.

LU-99A = assay: cells; conditions: Homo sapiens;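 also: growth inhibition of LU-99A cells, read out with a cell viability assay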
Description: SANGER: Inhibition of human LU-99A cell growth in a cell viability assay.

SCC-9 = assay: cells; conditions: Homo sapiens;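 also: Read-out is a cell viability assay, with values giving inhibition of cell growth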
Description: SANGER: Inhibition of human SCC-9 cell growth in a cell viability assay.

HTC-C3 = assay: cells; conditions: Homo sapiens;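 also: inhibition of cell growth, read out with a cell viability assay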
Description: SANGER: Inhibition of human HTC-C3 cell growth in a cell viability assay.

GCT = assay: cells; conditions: Homo sapiens;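 also: GCT cell line proliferation inhibition, read out with a cell viability assay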
Description: SANGER: Inhibition of human GCT cell growth in a cell viability assay.

23132-87 = assay: cells; conditions: Homo sapiens
Description: SANGER: Inhibition of human 23132-87 cell growth in a cell viability assay.

CPC-N = assay: cells; conditions: Homo sapiens;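 also: growth inhibition of CPC-N cells, with a cell viability assay as the readout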
Description: SANGER: Inhibition of human CPC-N cell growth in a cell viability assay.

KYSE-450 = assay: cells; conditions: Homo sapiens;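 also: cell growth inhibition measured by a viability assay in human KYSE-450 cells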
Description: SANGER: Inhibition of human KYSE-450 cell growth in a cell viability assay.

MRK-nu-1 = assay: cells; conditions: Homo sapiens;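 also: cell viability assay measuring growth suppression of human MRK-nu-1 cells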
Description: SANGER: Inhibition of human MRK-nu-1 cell growth in a cell viability assay.

AU565 = assay: cells; conditions: Homo sapiens;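 also: cell viability assay measuring growth inhibition of human AU565 cells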
Description: SANGER: Inhibition of human AU565 cell growth in a cell viability assay.

HT-3 = assay: cells; conditions: Homo sapiens;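 also: growth inhibition measured with a cell viability readout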
Description: SANGER: Inhibition of human HT-3 cell growth in a cell viability assay.

RO82-W-1 = assay: cells; conditions: Homo sapiens;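 also: growth inhibition of human RO82-W-1 cells, measured with a cell viability assay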
Description: SANGER: Inhibition of human RO82-W-1 cell growth in a cell viability assay.

LN-405 = assay: cells; conditions: Homo sapiens
Description: SANGER: Inhibition of human LN-405 cell growth in a cell viability assay.

HLE = assay: cells; conditions: Homo sapiens;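 also: growth inhibition of human HLE cells, read out by a cell viability assay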
Description: SANGER: Inhibition of human HLE cell growth in a cell viability assay.

U-118-MG = assay: cells; conditions: Homo sapiens
Description: SANGER: Inhibition of human U-118-MG cell growth in a cell viability assay.

HSC-2 = assay: cells; conditions: Homo sapiens;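 also: growth inhibition of human HSC-2 cells, read out by a cell viability assay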
Description: SANGER: Inhibition of human HSC-2 cell growth in a cell viability assay.

CAL-62 = assay: cells; conditions: Homo sapiens;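 also: growth inhibition of CAL-62 cells, read out with a cell viability assay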
Description: SANGER: Inhibition of human CAL-62 cell growth in a cell viability assay.

RL = assay: cells; conditions: Homo sapiens
Description: SANGER: Inhibition of human RL cell growth in a cell viability assay.

KOSC-2 = assay: cells; conditions: Homo sapiens;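 also: growth inhibition of KOSC-2 cells, read out by a cell viability assay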
Description: SANGER: Inhibition of human KOSC-2 cell growth in a cell viability assay.

HuO9 = assay: cells; conditions: Homo sapiens;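 also: growth inhibition of HuO9 cells, read out with a cell viability assay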
Description: SANGER: Inhibition of human HuO9 cell growth in a cell viability assay.

MDA-MB-134-VI = assay: cells; conditions: Homo sapiens
Description: SANGER: Inhibition of human MDA-MB-134-VI cell growth in a cell viability assay.

JIYOYE = assay: cells; conditions: Homo sapiens
Description: SANGER: Inhibition of human JiyoyeP-2003 cell growth in a cell viability assay.

HGC-27 = assay: cells; conditions: Homo sapiens;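 also: growth inhibition of human HGC-27 cells, read out in a cell viability assay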
Description: SANGER: Inhibition of human HGC-27 cell growth in a cell viability assay.

NCI-H1882 = assay: cells; conditions: Homo sapiens;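 also: growth inhibition of the cell line, determined with a viability assay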
Description: SANGER: Inhibition of human NCI-H1882 cell growth in a cell viability assay.

A204 = assay: cells; conditions: Homo sapiens;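 also: growth inhibition of human A204 cells, read out with a cell viability assay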
Description: SANGER: Inhibition of human A204 cell growth in a cell viability assay.

MDA-MB-157 = assay: cells; conditions: Homo sapiens
Description: SANGER: Inhibition of human MDA-MB-157 cell growth in a cell viability assay.

NCI-H1563 = assay: cells; conditions: Homo sapiens;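 also: growth inhibition of human NCI-H1563 cells, read out with a cell viability assay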
Description: SANGER: Inhibition of human NCI-H1563 cell growth in a cell viability assay.

CWR22R = assay: cells; conditions: Homo sapiens, 22Rv1;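 also: growth inhibition of 22Rv1 cells, read out with a cell viability assay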
Description: SANGER: Inhibition of human 22RV1 cell growth in a cell viability assay.

NCI-H28 = assay: cells; conditions: Homo sapiens;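 also: growth inhibition of human NCI-H28 cells, read out as cell viability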
Description: SANGER: Inhibition of human NCI-H28 cell growth in a cell viability assay.

RPMI-6666 = assay: cells; conditions: Homo sapiens
Description: SANGER: Inhibition of human RPMI-6666 cell growth in a cell viability assay.

ESS-1 = assay: cells; conditions: Homo sapiens;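 also: growth inhibition of human ESS-1 cells, read out by a cell viability assay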
Description: SANGER: Inhibition of human ESS-1 cell growth in a cell viability assay.

HuP-T3 = assay: cells; conditions: Homo sapiens;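 also: HuP-T3 cell growth inhibition, read out with a cell viability assay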
Description: SANGER: Inhibition of human HuP-T3 cell growth in a cell viability assay.

SW626 = assay: cells; conditions: Homo sapiens;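 also: growth inhibition of SW626 cells, measured with a cell viability assay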
Description: SANGER: Inhibition of human SW626 cell growth in a cell viability assay.

SW48 = assay: cells; conditions: Homo sapiens;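 also: growth inhibition of SW48 cells, read out with a cell viability assay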
Description: SANGER: Inhibition of human SW48 cell growth in a cell viability assay.

NCCIT = assay: SANGER: Inhibition of human NCCIT cell growth in a cell viability assay.
CAL-85-1 = assay: cells; conditions: Homo sapiens;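 also: growth inhibition of human CAL-85-1 cells, read out with a cell viability assay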
Description: SANGER: Inhibition of human CAL-85-1 cell growth in a cell viability assay.

CAL-51 = assay: cells; conditions: Homo sapiens;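 also: human CAL-51 cell line, growth inhibition read out via a cell viability assay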
Description: SANGER: Inhibition of human CAL-51 cell growth in a cell viability assay.

CaR-1 = assay: cells; conditions: Homo sapiens;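 also: growth inhibition of human CaR-1 cancer cells, read out with a cell viability assay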
Description: SANGER: Inhibition of human CaR-1 cell growth in a cell viability assay.

NCI-H2081 = assay: cells; conditions: Homo sapiens;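 also: growth inhibition of human NCI-H2081 cells, read out with a cell viability assay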
Description: SANGER: Inhibition of human NCI-H2081 cell growth in a cell viability assay.

SN12C = assay: cells; conditions: Homo sapiens;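 also: growth inhibition of human SN12C cells, measured by a cell viability assay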
Description: SANGER: Inhibition of human SN12C cell growth in a cell viability assay.

SNU-449 = assay: cells; conditions: Homo sapiens
Description: SANGER: Inhibition of human SNU-449 cell growth in a cell viability assay.

SK-N-AS = assay: cells; conditions: Homo sapiens;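 also: growth inhibition of human SK-N-AS cells, measured with a cell viability assay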
Description: SANGER: Inhibition of human SK-N-AS cell growth in a cell viability assay.

HCC70 = assay: cells; conditions: Homo sapiens;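 also: cell viability assay measuring how strongly the compound suppresses proliferation of HCC70 cells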
Description: SANGER: Inhibition of human HCC70 cell growth in a cell viability assay.

SAOS-2 = assay: cells; conditions: Homo sapiens;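 also: growth inhibition of human Saos-2 cells determined by a cell viability assay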
Description: SANGER: Inhibition of human Saos-2 cell growth in a cell viability assay.

NCI-H1793 = assay: cells; conditions: Homo sapiens;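 also: cell growth inhibition, read out by a cell viability assay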
Description: SANGER: Inhibition of human NCI-H1793 cell growth in a cell viability assay.

MIA PaCa-2 = assay: cells; conditions: Homo sapiens;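 also: growth inhibition of MIA PaCa-2 cells, read out with a cell viability assay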
Description: SANGER: Inhibition of human MIA-PaCa-2 cell growth in a cell viability assay.

NB14 = assay: cells; conditions: Homo sapiens;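 also: growth inhibition of NB14 cells measured with a cell viability assay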
Description: SANGER: Inhibition of human NB14 cell growth in a cell viability assay.

Q: What does the source list for `CC(C)=CC[C@@H](O)C1=CC(=O)c2c(O)ccc(O)c2C1=O` [SHIKONIN]?
A: IC50 (SK-MEL-24): 1130 nM; IC50 (KP-4): 501 nM; IC50 (UO-31): 771 nM; IC50 (EVSA-T): 410 nM; IC50 (A-375): 311 nM; IC50 (HT-29): 645 nM; IC50 (A673): 1220 nM; IC50 (HT-1376): 915 nM; IC50 (FTC-133): 5740 nM; IC50 (HOS): 186 nM; IC50 (NCI-H1694): 840 nM; IC50 (NCI-H345): 990 nM; IC50 (G-361): 473 nM; IC50 (HCC1954): 902 nM; IC50 (NCI-H1792): > 16000 nM; IC50 (DU-145): 193 nM; IC50 (IGROV-1): 55.6 nM; IC50 (TALL-1): > 16000 nM; IC50 (ASPC1): 619 nM; IC50 (LU-99A): 1300 nM; IC50 (SCC-9): 197 nM; IC50 (HTC-C3): 542 nM; IC50 (GCT): 1150 nM; IC50 (23132-87): 2110 nM; IC50 (CPC-N): > 16000 nM; IC50 (KYSE-450): 138 nM; IC50 (MRK-nu-1): 102 nM; IC50 (AU565): 1240 nM; IC50 (HT-3): 948 nM; IC50 (RO82-W-1): 2840 nM; IC50 (LN-405): 6910 nM; IC50 (HLE): 88.3 nM; IC50 (U-118-MG): 842 nM; IC50 (HSC-2): 223 nM; IC50 (CAL-62): 1280 nM; IC50 (RL): > 16000 nM; IC50 (KOSC-2): 1490 nM; IC50 (HuO9): 1660 nM; IC50 (MDA-MB-134-VI): 709 nM; IC50 (JIYOYE): 1390 nM; IC50 (HGC-27): 228 nM; IC50 (NCI-H1882): 576 nM; IC50 (A204): 127 nM; IC50 (MDA-MB-157): 637 nM; IC50 (NCI-H1563): 626 nM; IC50 (CWR22R): 4610 nM; IC50 (NCI-H28): 1010 nM; IC50 (RPMI-6666): 587 nM; IC50 (ESS-1): > 16000 nM; IC50 (HuP-T3): 834 nM; IC50 (SW626): 635 nM; IC50 (SW48): 1260 nM; IC50 (NCCIT): 517 nM; IC50 (CAL-85-1): 161 nM; IC50 (CAL-51): 20.9 nM; IC50 (CaR-1): 1310 nM; IC50 (NCI-H2081): 1520 nM; IC50 (SN12C): 1760 nM; IC50 (SNU-449): 813 nM; IC50 (SK-N-AS): 1790 nM; IC50 (HCC70): 2010 nM; IC50 (SAOS-2): 2370 nM; IC50 (NCI-H1793): > 16000 nM; IC50 (MIA PaCa-2): 276 nM

Q: How did the IC50 (SK-MEL-24) turn out when `CC[C@]1(O)C[C@@H]2CN(CCc3c([nH]c4ccccc34)[C@@](C(=O)OC)(c3cc4c(cc3OC)N(C)[C@H]3[C@@](O)(C(=O)OC)[C@H](OC(C)=O)[C@]5(CC)C=CCN6CC[C@]43[C@@H]65)C2)C1` [VINBLASTINE] was run?
A: 31.5 nM

Q: And the IC50 (KP-4)?
A: 2.37 nM

Q: And the IC50 (UO-31)?
A: 13.9 nM

Q: And the IC50 (A-375)?
A: 23.5 nM

Q: And the IC50 (HT-29)?
A: 45.9 nM

Q: What about the IC50 (A673) of the same compound?
A: 6.88 nM

Q: What about the IC50 (HT-1376) of the same compound?
A: 60.4 nM

Q: What about the IC50 (FTC-133) of the same compound?
A: 8.44 nM

Q: What about the IC50 (HOS) of the same compound?
A: 6.25 nM

Q: And the IC50 (G-361)?
A: > 100 nM

Q: And the IC50 (HCC1954)?
A: > 100 nM

Q: And the IC50 (NCI-H1792)?
A: 4.39 nM

Q: And the IC50 (DU-145)?
A: 98.7 nM

Q: And the IC50 (IGROV-1)?
A: > 100 nM

Q: What about the IC50 (ASPC1) of the same compound?
A: 13.2 nM

Q: What about the IC50 (LU-99A) of the same compound?
A: 20.8 nM

Q: What about the IC50 (SCC-9) of the same compound?
A: 10.7 nM

Q: What about the IC50 (HTC-C3) of the same compound?
A: 10.4 nM

Q: What about the IC50 (GCT) of the same compound?
A: 4.73 nM

Q: And the IC50 (23132-87)?
A: 20.6 nM

Q: What about the IC50 (KYSE-450) of the same compound?
A: 9.65 nM

Q: What about the IC50 (AU565) of the same compound?
A: 3.45 nM

Q: What about the IC50 (HT-3) of the same compound?
A: 37.1 nM

Q: And the IC50 (RO82-W-1)?
A: 5.57 nM

Q: And the IC50 (LN-405)?
A: 12.4 nM

Q: And the IC50 (HLE)?
A: 4.23 nM

Q: And the IC50 (U-118-MG)?
A: 45.2 nM

Q: And the IC50 (HSC-2)?
A: 20.2 nM

Q: What about the IC50 (CAL-62) of the same compound?
A: 10.1 nM

Q: What about the IC50 (KOSC-2) of the same compound?
A: 0.698 nM

Q: And the IC50 (HuO9)?
A: 12.6 nM

Q: What about the IC50 (HGC-27) of the same compound?
A: 1.01 nM

Q: And the IC50 (A204)?
A: 8.76 nM

Q: And the IC50 (MDA-MB-157)?
A: 9.06 nM

Q: And the IC50 (NCI-H1563)?
A: 21.5 nM

Q: What about the IC50 (CWR22R) of the same compound?
A: 9.82 nM

Q: What about the IC50 (NCI-H28) of the same compound?
A: 34.3 nM

Q: And the IC50 (ESS-1)?
A: 4.88 nM

Q: What about the IC50 (HuP-T3) of the same compound?
A: 18 nM

Q: And the IC50 (SW626)?
A: 23.2 nM

Q: And the IC50 (SW48)?
A: 6.94 nM

Q: And the IC50 (CAL-85-1)?
A: > 100 nM

Q: And the IC50 (CAL-51)?
A: 16.4 nM

Q: And the IC50 (CaR-1)?
A: 45.7 nM

Q: What about the IC50 (SN12C) of the same compound?
A: 16.1 nM

Q: What about the IC50 (SNU-449) of the same compound?
A: > 100 nM

Q: What about the IC50 (SK-N-AS) of the same compound?
A: 8.67 nM

Q: What about the IC50 (NB14) of the same compound?
A: 4.95 nM

Q: And the IC50 (HCC70)?
A: 20.8 nM

Q: And the IC50 (SAOS-2)?
A: 32.3 nM

Q: And the IC50 (NCI-H1793)?
A: 29.6 nM

Q: What about the IC50 (MIA PaCa-2) of the same compound?
A: 3.39 nM
